Where a SMILES comes first, the peptide text is derived from it. The star is where a group is joined. Cbz = O=C(OCc1ccccc1)*
Columns and labels:
LNCaP-ARR2-GFP cells = assay: AR-regulated GFP expression in LNCaP-ARR2-GFP cells; assay type: cell-based; conditions: for cell growth: LNCaP-ARR2-GFP cells; for GFP expression (AR agonist activity): SMEM, absence of DHT, DL3 at 25 nM or 20 μM
LNCaP cells [1] = assay: AR protein stability and hsp70/hsp90 expression, western blotting; assay type: cell-based
Description: Cell lysates are prepared and analyzed by western blotting. […] To further determine how DL3 downregulates AR, LNCaP cells are incubated for 24 hr with DL3 in the absence or presence of proteasome inhibitor MG132.
Hsp70 and hsp90 are key molecular chaperones in cells. Along with several co-chaperones, hsp70 and hsp90 play critical roles in folding and assembling AR to a high-affinity ligand binding conformation and in regulating AR activation that occurs following hormone binding. Therefore, the possibility of whether the downregulation of AR protein by DL3 is mediated by its effects on hsp70 or hsp90 expression is investigated.
Thus, the effects of DL3 on hsp70 expression are further investigated in several other prostate cancer cell lines, including LAPC-4 (wildtype AR), 22Rv1 (mutant AR), and AR-negative cell lines PC-3, DU-145, PWE1-NB14 (ATCC), and PWE1-NB26 (ATCC). […] In FIG. 10, LAPC-4 (in SMEM) and all other (in CMEM) cells are treated for 24 hr and analyzed by western blotting. LNCaP cells are transfected for 24 hr with hsp70 or its control vector, then treated for 24 hr.

human PSA gene promoter = assay: PSA promoter luciferase reporter (pGL3-PSA-luc) in LNCaP cells; conditions: 1 nM DHT, 24 hr
LNCaP cells [2] = assay: PSA and AR mRNA expression, RT-PCR; assay type: cell-based; conditions: 6 hr
LNCaP cells [3] = assay: PSA and AR mRNA expression, RT-PCR; assay type: cell-based; conditions: 24 hr; for expression of AR mRNA: 20 μM DL3 or Bical
Description: In FIG. 7 LNCaP or 22Rv1 cells (A) are treated for 24 hr with DL3 and total RNA is extracted and analyzed by real-time RT-PCR. […] PSA mRNA in LNCaP cells is approximately 20 fold higher than that in 22Rv1 cells (FIG. 7A).

LNCaP cells [4] = assay: PSA secretion, ELISA of culture supernatant; assay type: cell-based; conditions: for DHT-induced PSA production / PSA production under androgen-free conditions: 20 μM, 48 hr; for PSA production under androgen-free conditions: no DHT
Description: PSA in the culture supernatant is determined by using an enzyme-linked immunosorbent assay (ELISA) kit. PSA levels are normalized by cell density.

LNCaP cells [5] = assay: Cell cycle distribution and apoptosis, flow cytometry (propidium staining) and western blotting; assay type: cell-based; conditions: for increase of the portion of cells in G1 phase of cell cycle: regardless of presence or absence of DHT
Description: To further appreciate the effects of DL3 on cell growth, cell cycle distribution is determined using the flow cytometry analysis. After incubation of LNCaP cells for 24 hr in SMEM, the majority of cells are in the G1 phase of cell cycle. […] The cell cycle distribution is examined by the propidium staining method. […] Thus, DL3 induces GI arrest of prostate cancer cells in short term culture.

[6] = system: LNCaP cells (mutant AR, H877A); assay: LNCaP cell growth, MTT staining; assay type: cell-based
Description: (§1) Viable cells are stained with MTT (3-(4,5-dimethylthiazol-2-yl)-2,5-diphenyltetrazolium bromide). *, **, and *** designate p<0.05, <0.01, and 0.001, respectively, compared with controls.

LNCaP cells [7] = assay: Cellular PSA and AR protein, western blotting; assay type: cell-based
Description: In FIG. 6, cellular PSA and AR are analyzed by western blotting androgen-starved LNCaP cells.

LNCaP-Flut-R cells [8] = assay: Growth of Flut-refractory LNCaP cells, MTT; assay type: cell-based; conditions: 10 μM, 4 days, MTT (FIG. 2F)
Description: as §1

LNCaP-Nilut-R cells [9] = assay: PSA secretion, ELISA of culture supernatant; assay type: cell-based; conditions: 1 nM DHT, 10 μM, 48 hr (FIG. 5D)
Description: (§2) For the following discussion, see FIG. 5, where androgen-starved LNCaP, LNCaP-Flut-R, or LNCaP-Nilut-R cells are plated into 96-well plates at 2×10^4 cells/wells in SMEM and treated for 48 hr. PSA in the culture supernatant is determined by using an enzyme-linked immunosorbent assay (ELISA) kit. PSA levels are normalized by cell density. […] The DHT-induced production of PSA is reduced by approximately 50% in cells treated with 5 μM of DL3 (FIG. 5B). […] PSA production is elevated in LNCaP-Flut-R and LNCaP-Nilut-R cells compared with that in their parental cells (FIG. 5D).

LNCaP-Flut-R cells [10] = assay: PSA secretion, ELISA of culture supernatant; assay type: cell-based; conditions: 1 nM DHT, 10 μM, 48 hr (FIG. 5D)
Description: as §2

LNCaP-Nilut-R cells [11] = assay: Growth of Nilut-refractory LNCaP cells, MTT; assay type: cell-based; conditions: 10 μM, 4 days, MTT (FIG. 2F)
Description: as §1

Q: For `O=c1c(O)c(-c2ccc(O)c(O)c2)oc2cc(O)cc(O)c12` [Querstin], which cell growth (LNCaP-ARR2-GFP cells) is on record?
A: Its cell growth is “significantly inhibited cell growth”.

Q: And the “GFP expression (AR agonist activity)” value (LNCaP-ARR2-GFP cells)?
A: Its value is “enhanced GFP expression”.

Q: With `O=c1c(-c2ccc(O)cc2)coc2cc(O)cc(O)c12` [Genistein] as the molecule, how does the cell growth (LNCaP-ARR2-GFP cells) read?
A: Its cell growth is “significantly inhibited cell growth”.

Q: What about the “GFP expression (AR agonist activity)” value (LNCaP-ARR2-GFP cells) of the same molecule?
A: The value was “enhanced GFP expression”.

Q: Which “DL3-induced reduction of AR” value (LNCaP cells [1]; 24 hr with DL3 in presence of MG132) does the source give for `CC(C)C[C@@H](C=O)NC(=O)[C@H](CC(C)C)NC(=O)[C@H](CC(C)C)NC(=O)OCc1ccccc1` [MG132, reference compound] (Cbz-Leu-Leu-Leu-aldehyde) here?
A: The value was “reversed”.

Q: Which results are given for `C[C@]12CCC(=O)C[C@@H]1CC[C@@H]1[C@@H]2CC[C@]2(C)[C@@H](O)CC[C@@H]12` [DHT, dihydrotestosterone, reference compound]?
A: enhancement of PSA promoter activity (human PSA gene promoter): approximately 5 fold; AR mRNA expression (LNCaP cells [2]): not significantly altered; expression of hsp70 (LNCaP cells [1]; SMEM, 24 hr with DHT or CHX (FIG. 9B, lane 3 or 5 vs. lane 1)): also reduced; expression of AR mRNA (LNCaP cells [3]; 1 nM DHT): partially downregulated; PSA production (LNCaP cells [4]): significantly elevated

Q: With `Oc1ccc(/C=C/c2cc(O)cc(O)c2)cc1` [Resveratol] as the molecule, how does the cell growth (LNCaP-ARR2-GFP cells) read?
A: Its cell growth is “significantly inhibited cell growth”.

Q: And the “GFP expression (AR agonist activity)” value (LNCaP-ARR2-GFP cells)?
A: The value was “enhanced GFP expression”.

Q: Which “GFP expression (AR agonist activity)” value (LNCaP-ARR2-GFP cells) does the source give for `CC(O)(CS(=O)(=O)c1ccc(F)cc1)C(=O)Nc1ccc(C#N)c(C(F)(F)F)c1` (stereo not drawn) [Bical, Bicalutamide, reference compound] here?
A: The value was “not”.

Q: What about the “increase of the portion of cells in G1 phase of cell cycle” value (LNCaP cells [5]; 24 hr) of the same molecule?
A: Its value is 15%.

Q: And the induction of apoptosis (LNCaP cells [5]; 24 hr, DL3 at 20 μM)?
A: The induction of apoptosis was “does not induce apoptosis”.

Q: And the “survivin expression and caspase 3 cleavage (western blotting)” value (LNCaP cells [5]; data not shown)?
A: Its value is “alter neither survivin expression nor caspase 3 cleavage”.

Q: What about the “effect on DHT-stimulated growth of LNCaP cells” value [6] of the same molecule?
A: The value was “inhibit DHT-stimulated growth of LNCaP cells in a dose-dependent manner”.

Q: And the “DHT-stimulated PSA mRNA expression” value (LNCaP cells [3]; 20 μM, 1 nM DHT)?
A: The value was “only partially inhibits”.

Q: What about the “basal level of PSA mRNA” value (LNCaP cells [3]; 20 μM, androgen-starved) of the same molecule?
A: Its value is “no significant effects”.

Q: What about the “expression of AR mRNA” value (LNCaP cells [3]; 1 nM DHT) of the same molecule?
A: The value was “partially downregulated”.

Q: What about the “PSA protein expression under androgen-free culture conditions” value (LNCaP cells [7]; 20 μM, 24 hr) of the same molecule?
A: Its value is “enhances PSA expression”.

Q: And the “expression of AR protein” value (LNCaP cells [7]; 20 μM, 24 hr (FIG. 6C))?
A: Its value is “moderately downregulated”.

Q: What about the “DHT-induced PSA protein expression” value (LNCaP cells [7]; SMEM, 24 hr, Flut, Nilut, Bical at 20 μM) of the same molecule?
A: The value was “moderately reduced”.

Q: And the “DHT-induced PSA production” value (LNCaP cells [4]; 1 nM DHT)?
A: The value was “reduce DHT-induced PSA production”.

Q: What about the “PSA production under androgen-free conditions” value (LNCaP cells [4]) of the same molecule?
A: Its value is “stimulates PSA production”.

Q: How did the “increase of the portion of cells in G1 phase of cell cycle” value (LNCaP cells [5]; 24 hr) turn out when `CC(C)C(=O)Nc1ccc([N+](=O)[O-])c(C(F)(F)F)c1` [Flut, Flutamide] was run?
A: Its value is 15%.

Q: For `CC1(C)NC(=O)N(c2ccc([N+](=O)[O-])c(C(F)(F)F)c2)C1=O` [Nilut, Nilutamide, reference compound], which “growth of LNCaP-Flut-R cells” value (LNCaP-Flut-R cells [8]) is on record?
A: The value was “promotes growth”.

Q: What about the “PSA production in LNCaP-Nilut-R cells” value (LNCaP-Nilut-R cells [9]) of the same molecule?
A: The value was “enhances PSA production”.

Q: And the “PSA production in LNCaP-Flut-R cells” value (LNCaP-Flut-R cells [10])?
A: Its value is “enhances PSA production”.

Q: What about the “growth of LNCaP-Nilut-R cells” value (LNCaP-Nilut-R cells [11]) of the same molecule?
A: The value was “promotes growth”.

Q: And the “PSA production in parental LNCaP cells” value (LNCaP cells [4]; 1 nM DHT, 10 μM, 48 hr (FIG. 5D))?
A: Its value is “enhances PSA production”.

Q: And the “DHT-induced PSA production” value (LNCaP cells [4]; 1 nM DHT)?
A: The value was “not”.

Q: And the “PSA production under androgen-free conditions” value (LNCaP cells [4])?
A: Its value is “stimulates PSA production”.

From US7829575B2, “Methods for treating androgen receptor related disorders” (University of Cincinnati, priority 2006, dated 2010)
